# Key:
# bananas [1] = assay: Example US-5: various levels of 1-MCP; type: in vivo, Musa; set-up: SS (sugar spots): scale not given here; settings: 7 days
# Method: Bananas were grown, shipped, and ripened as described in Example US-1. All bananas were in T-bags through the ripening cycle. At color stage 3.0 to 4.0, the bananas, still in T-bags, were placed in various airtight containers; in each container, a specified concentration of 1-MCP was released into the air; bananas remained in those containers for 12 hours. After that, half of each treatment group was transferred to MAP bags, and all bananas were placed into post-MCP storage as in US-1. At the end of 7 days, bananas were evaluated for sugar spots (SS), color stage (CS), and firmness (F). Firmness was measured with a Fruit Texture Analyzer (Güss Company, Republic of South Africa) using a probe of 8 mm diameter.
# bananas [2] = assay: Example 2A: evaluation process A (4 days post-MCP in bag at 14° C., then 7 days at approx. 22° C.); type: in vivo, Musa; settings: for Color Stage (mean) / Sugar Spots (mean %): 4 days in bag at 14° C., then 7 days at approx. 22° C.
# Source text: The color of banana peels is rated according to a seven stage rating scale: stage 1 (dark green); stage 2 (all light green); stage 3 (half green and half yellow); stage 4 (more yellow than green); stage 5 (green tips and necks); stage 6 (all yellow; maybe light green necks, no green tips); stage 7 (yellow flecked with brown). Consumers generally prefer to eat bananas in stage 5 or stage 6.
# Bananas were harvested at 13 weeks of age. Fruit bunches were separated into hands, then washed, and excess latex was removed in chlorinated water tanks using standard commercial practices. The washed hands of bananas were further broken into clusters and treated with fungicide. Clusters were placed into plastic bags; each bag held approximately 1.4 kg (3 lbs) of bananas. The bananas remained in these bags until they were removed for evaluation (see below).
# The plastic bags were either T bags or were modified-atmosphere bags (“MAP” bags). The T bags (also called “PE bags” herein) were typical of bags normally used in commerce for bananas. The bags were then placed into cartons. Each carton held 13 bags. Each carton either held MAP bags only or else held PE bags only. 20 cartons of MAP bags and 20 cartons of PE bags were prepared.
# The cartons were placed in a refrigerated truck and transported to a storage facility. The distance from harvest to storage was approximately 100 km. The temperature in the refrigerated truck was 14 to 18° C. To simulate the effect of shipping over long distances, the cartons were placed in conventional cold storage room at 14° C. for two weeks. In storage, the cartons were placed so that air could circulate between and around each carton.
# After the storage period, the thermostat of the holding room was raised to 18° C., and no further action was taken until the holding room was at 18° C. for 12 hours. Bananas were ripened using a 5-day schedule, as follows. The temperatures shown are pulp temperatures; if necessary, the thermostat was lowered so that pulp temperature remained at the desired temperature despite any respiration that may be taking place in the bananas.
# On day 5 at approximately 4 pm, the cartons were divided in to seven groups: one untreated control (“UTC”) group (6 cartons) and six treatment groups. Each group had equal number of PE cartons and MAP cartons. The six treatment groups were as follows:
# UTC cartons were placed in a shed that had good ventilation. The remaining cartons remained in the holding room. Four airtight tents were erected in the holding room. Each tent held all the cartons for one of the treatment groups PE-3-C, PE-10-C, MAP-3, and MAP-10.
# At day 5 at approximately 4 pm, the bananas had reached color stage 2.5 to 3.5. Treatment groups PE-3-C, PE-10-C, MAP-3, and MAP-10 were then exposed to 1-MCP overnight at the concentrations shown above.
# Some of the bananas from each group described in Example 2 were evaluated by process “A” as follows: After treatment groups PE-3-C, PE-10-C, MAP-3, and MAP-10 received exposure to 1-MCP, the bananas remained in their bags in the holding room at 14° C. for 4 days; then the bananas were removed from the bags and stored at approximately 22° C. for 7 days; then the bananas were evaluated.
# [3] = MAP-10: MAP bag, 1000 ppb 1-MCP
# [4] = PE-10-C: PE bag, 1000 ppb 1-MCP
structure (smiles),measurement,setting,value
"CC1=CC1 [1-MCP, 1-methylcyclopropene]",CS (color stage),"bananas [1]; MAP, 1 ppb 1-MCP",5.2
same,F (firmness),"bananas [1]; MAP, 1 ppb 1-MCP",0.584 kg
same,SS (sugar spots),"bananas [1]; MAP, 1 ppb 1-MCP",1.8
same,CS (color stage),"bananas [1]; MAP, 5 ppb 1-MCP",4.8
same,F (firmness),"bananas [1]; MAP, 5 ppb 1-MCP",0.602 kg
same,SS (sugar spots),"bananas [1]; MAP, 5 ppb 1-MCP",0.5
same,CS (color stage),"bananas [1]; MAP, 10 ppb 1-MCP",5.4
same,F (firmness),"bananas [1]; MAP, 10 ppb 1-MCP",0.599 kg
same,SS (sugar spots),"bananas [1]; MAP, 10 ppb 1-MCP",1.5
same,CS (color stage),"bananas [1]; MAP, 25 ppb 1-MCP",5.6
same,F (firmness),"bananas [1]; MAP, 25 ppb 1-MCP",0.603 kg
same,SS (sugar spots),"bananas [1]; MAP, 25 ppb 1-MCP",0.8
same,CS (color stage),"bananas [1]; MAP, 50 ppb 1-MCP",5.5
same,F (firmness),"bananas [1]; MAP, 50 ppb 1-MCP",0.593 kg
same,SS (sugar spots),"bananas [1]; MAP, 50 ppb 1-MCP",1.0
same,CS (color stage),"bananas [1]; MAP, 100 ppb 1-MCP",5.2
same,F (firmness),"bananas [1]; MAP, 100 ppb 1-MCP",0.581 kg
same,SS (sugar spots),"bananas [1]; MAP, 100 ppb 1-MCP",1.0
same,CS (color stage),"bananas [1]; MAP, 200 ppb 1-MCP",4.9
same,F (firmness),"bananas [1]; MAP, 200 ppb 1-MCP",0.592 kg
same,SS (sugar spots),"bananas [1]; MAP, 200 ppb 1-MCP",0.8
same,CS (color stage),"bananas [1]; MAP, 1000 ppb 1-MCP",6.2
same,F (firmness),"bananas [1]; MAP, 1000 ppb 1-MCP",0.617 kg
same,SS (sugar spots),"bananas [1]; MAP, 1000 ppb 1-MCP",1.8
same,CS (color stage),"bananas [1]; MAP, 5000 ppb 1-MCP",6.2
same,F (firmness),"bananas [1]; MAP, 5000 ppb 1-MCP",0.602 kg
same,SS (sugar spots),"bananas [1]; MAP, 5000 ppb 1-MCP",1.2
same,CS (color stage),"bananas [1]; MAP, 50000 ppb 1-MCP",5.6
same,F (firmness),"bananas [1]; MAP, 50000 ppb 1-MCP",0.585 kg
same,SS (sugar spots),"bananas [1]; MAP, 50000 ppb 1-MCP",2.5
same,CS (color stage),"bananas [1]; T-bag, 1 ppb 1-MCP",6.6
same,F (firmness),"bananas [1]; T-bag, 1 ppb 1-MCP",0.561 kg
same,SS (sugar spots),"bananas [1]; T-bag, 1 ppb 1-MCP",2.2
same,CS (color stage),"bananas [1]; T-bag, 5 ppb 1-MCP",6.6
same,F (firmness),"bananas [1]; T-bag, 5 ppb 1-MCP",0.571 kg
same,SS (sugar spots),"bananas [1]; T-bag, 5 ppb 1-MCP",2.8
same,CS (color stage),"bananas [1]; T-bag, 10 ppb 1-MCP",6.6
same,F (firmness),"bananas [1]; T-bag, 10 ppb 1-MCP",0.568 kg
same,SS (sugar spots),"bananas [1]; T-bag, 10 ppb 1-MCP",2.0
same,CS (color stage),"bananas [1]; T-bag, 25 ppb 1-MCP",6.2
same,F (firmness),"bananas [1]; T-bag, 25 ppb 1-MCP",0.576 kg
same,SS (sugar spots),"bananas [1]; T-bag, 25 ppb 1-MCP",2.5
same,CS (color stage),"bananas [1]; T-bag, 50 ppb 1-MCP",7.0
same,F (firmness),"bananas [1]; T-bag, 50 ppb 1-MCP",0.591 kg
same,SS (sugar spots),"bananas [1]; T-bag, 50 ppb 1-MCP",2.2
same,CS (color stage),"bananas [1]; T-bag, 100 ppb 1-MCP",7.0
same,F (firmness),"bananas [1]; T-bag, 100 ppb 1-MCP",0.571 kg
same,SS (sugar spots),"bananas [1]; T-bag, 100 ppb 1-MCP",2.5
same,CS (color stage),"bananas [1]; T-bag, 200 ppb 1-MCP",7.0
same,F (firmness),"bananas [1]; T-bag, 200 ppb 1-MCP",0.589 kg
same,SS (sugar spots),"bananas [1]; T-bag, 200 ppb 1-MCP",3.0
same,CS (color stage),"bananas [1]; T-bag, 1000 ppb 1-MCP",7.0
same,F (firmness),"bananas [1]; T-bag, 1000 ppb 1-MCP",0.601 kg
same,SS (sugar spots),"bananas [1]; T-bag, 1000 ppb 1-MCP",3.0
same,CS (color stage),"bananas [1]; T-bag, 5000 ppb 1-MCP",6.2
same,F (firmness),"bananas [1]; T-bag, 5000 ppb 1-MCP",0.579 kg
same,SS (sugar spots),"bananas [1]; T-bag, 5000 ppb 1-MCP",3.0
same,CS (color stage),"bananas [1]; T-bag, 50000 ppb 1-MCP",6.6
same,F (firmness),"bananas [1]; T-bag, 50000 ppb 1-MCP",0.563 kg
same,SS (sugar spots),"bananas [1]; T-bag, 50000 ppb 1-MCP",2.8
same,Comments (additional observations),"bananas [2]; MAP-3: MAP bag, 300 ppb 1-MCP",Fruit with excellent bright yellow color. Only high
same,Delay in sugar spot development longer than MAP-0,"bananas [2]; MAP-3: MAP bag, 300 ppb 1-MCP",at least three
same,Color Stage (mean),"bananas [2]; MAP-3: MAP bag, 300 ppb 1-MCP",6.3
same,Sugar Spots (mean %),"bananas [2]; MAP-3: MAP bag, 300 ppb 1-MCP",3%
same,Comments (additional observations),bananas [2]; [3],"Almost all fruit was at the right color for sale,"
same,Delay in sugar spot development longer than MAP-0,bananas [2]; [3],at least three
same,Color Stage (mean),bananas [2]; [3],6.1
same,Sugar Spots (mean %),bananas [2]; [3],2%
same,Comments (additional observations),"bananas [2]; PE-3-C: PE bag, 300 ppb 1-MCP",Some fruit was in a good color stage. However most
same,Color Stage (mean),"bananas [2]; PE-3-C: PE bag, 300 ppb 1-MCP",6.8
same,Sugar Spots (mean %),"bananas [2]; PE-3-C: PE bag, 300 ppb 1-MCP",35%
same,Comments (additional observations),bananas [2]; [4],Some fruit was in a good color stage. However most
same,Color Stage (mean),bananas [2]; [4],6.9
same,Sugar Spots (mean %),bananas [2]; [4],73%
